{"source": "ChEMBL document CHEMBL1158882", "about": "“Yardenone A and B: new cytotoxic triterpenes from the Indian Ocean sponge Axinella cf. bidderi” (J Nat Prod, 2003)", "key": {"Homo sapiens": {"species": "Homo sapiens", "test": "(§1) Cytotoxicity against human NSCLC-N6-L16 cells", "type": "functional, cell-based"}, "[1]": {"test": "as §1", "type": "functional, cell-based"}}, "note": "pIC50: −log10 of the molar value. Activity calls are given as the source filed them. No cut-off for these calls is given here."}
{"smiles": "C[C@H]1CC[C@@H]2OC(C)(C)C(=O)CC[C@@]2(C)[C@]12CC[C@@H]([C@@]1(C)CC[C@@H]3OC(C)(C)C(=O)CC[C@]31C)O2", "values": [{"measurement": "Activity", "setting": "Homo sapiens", "result": "inactive"}]}
{"smiles": "CC1=C(CC[C@H]2[C@]3(C)CCC(=O)C(C)(C)O[C@H]3CC[C@]2(C)O)[C@@]2(C)CCC(=O)C(C)(C)C2=C(O)C1=O", "note": "[SODWANONE A]", "values": [{"measurement": "pIC50", "setting": "[1]", "result": 4.92}]}
{"smiles": "C[C@H]1CC[C@@H]2OC(C)(C)C(=O)CC[C@@]2(C)[C@]12C[C@H](O)[C@@H]([C@@]1(C)CC[C@@H]3OC(C)(C)C(=O)CC[C@]31C)O2", "note": "[YARDENONE A]", "values": [{"measurement": "pIC50", "setting": "[1]", "result": "< 4.22"}]}
{"smiles": "C[C@H]1CC[C@@H]2OC(C)(C)[C@H](O)CC[C@@]2(C)[C@]12C[C@H](O)[C@@H]([C@@]1(C)CC[C@@H]3OC(C)(C)C(=O)CC[C@]31C)O2", "note": "[YARDENONE B]", "values": [{"measurement": "pIC50", "setting": "[1]", "result": "< 4.51"}]}
